The record followed here is US8426437B2, “Pyrroloquinoline derivatives and their use as protein kinases inhibitors” (Pierre Fabre Medicament, priority 2005, dated 2013).

The structures appear in SMILES notation. A value given as a limit tells only on which side of the number the result lay.

A word on the IC50: it is the midpoint of a concentration-inhibition curve. The inhibition is how much of the control response was suppressed.

Format in all cases: biochemical
The target in one assay is T1, RET (Homo sapiens, UniProt P07949).
T1 construct: purchased Upstate 14-570MG
T1 sequence (P07949 29-1114): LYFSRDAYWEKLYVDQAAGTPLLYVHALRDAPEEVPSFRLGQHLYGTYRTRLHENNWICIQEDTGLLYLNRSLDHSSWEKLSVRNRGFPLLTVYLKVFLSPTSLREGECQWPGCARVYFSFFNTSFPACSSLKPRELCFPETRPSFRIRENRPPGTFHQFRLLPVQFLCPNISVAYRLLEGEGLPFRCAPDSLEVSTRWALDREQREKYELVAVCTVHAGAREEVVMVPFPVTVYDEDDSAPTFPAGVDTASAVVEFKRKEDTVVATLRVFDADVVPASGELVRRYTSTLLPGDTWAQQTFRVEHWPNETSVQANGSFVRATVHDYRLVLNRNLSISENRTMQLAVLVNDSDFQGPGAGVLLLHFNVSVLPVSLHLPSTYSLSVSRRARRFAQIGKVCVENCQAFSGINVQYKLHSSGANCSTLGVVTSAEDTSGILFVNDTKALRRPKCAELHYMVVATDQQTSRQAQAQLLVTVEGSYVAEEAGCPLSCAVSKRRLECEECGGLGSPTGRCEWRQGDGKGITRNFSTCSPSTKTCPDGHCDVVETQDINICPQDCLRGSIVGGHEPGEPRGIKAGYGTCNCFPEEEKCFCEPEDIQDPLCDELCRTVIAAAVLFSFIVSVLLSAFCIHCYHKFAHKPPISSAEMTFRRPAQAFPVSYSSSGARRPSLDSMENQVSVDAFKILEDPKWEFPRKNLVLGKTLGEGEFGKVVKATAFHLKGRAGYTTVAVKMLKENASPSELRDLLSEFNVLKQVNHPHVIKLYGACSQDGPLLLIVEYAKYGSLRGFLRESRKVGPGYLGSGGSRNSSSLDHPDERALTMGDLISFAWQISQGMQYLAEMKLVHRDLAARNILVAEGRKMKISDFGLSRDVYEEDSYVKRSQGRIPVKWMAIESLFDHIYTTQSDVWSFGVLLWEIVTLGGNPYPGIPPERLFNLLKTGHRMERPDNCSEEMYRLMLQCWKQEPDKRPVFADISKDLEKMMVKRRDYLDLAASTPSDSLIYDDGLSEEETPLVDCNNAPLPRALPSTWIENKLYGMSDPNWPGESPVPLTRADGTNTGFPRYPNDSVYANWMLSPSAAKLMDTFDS
The assay is described as follows: Inhibition of RET kinase activity, recombinant RET method (Kinase-Glo). The settings on record: RET 2 μg/ml, poly-EY4 substrate, 20 μM ATP, two hours at 30° C. An outline of the steps:
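Recombinant RET at 2 μg/ml in 20 mM MOPS/NaOH pH 7.0, 1 mM EDTA, 5% glycerol, 0.01% Brij35, 0.1% 2-mercaptoethanol, 1 mg/ml BSA; compounds 10 nM–30 μM final.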
A general note: Kinase-Glo reads ATP consumption through a luciferase reaction.

Another assay addresses T2, Aurora-A (h) (Homo sapiens, UniProt O14965).
T2 construct: purchased Upstate
T2 sequence (O14965 1-403): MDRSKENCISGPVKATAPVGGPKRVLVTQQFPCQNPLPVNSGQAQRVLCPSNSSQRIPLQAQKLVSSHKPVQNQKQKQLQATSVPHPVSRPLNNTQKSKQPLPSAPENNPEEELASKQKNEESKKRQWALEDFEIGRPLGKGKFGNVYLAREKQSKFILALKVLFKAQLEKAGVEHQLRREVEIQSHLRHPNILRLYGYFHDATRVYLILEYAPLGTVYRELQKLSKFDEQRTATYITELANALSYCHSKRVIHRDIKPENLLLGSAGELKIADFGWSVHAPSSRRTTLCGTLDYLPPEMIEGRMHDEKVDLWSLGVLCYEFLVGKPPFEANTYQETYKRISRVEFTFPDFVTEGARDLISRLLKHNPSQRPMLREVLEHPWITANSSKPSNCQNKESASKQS
In words: Upstate kinase panel: Aurora-A. The method, then:
(§1) These kinases are produced by Upstate and screened according to the respective protocols indicated by the supplier (http://www.upstate.com/features/kp_protocols.asp). Examples 1, 12, 166 and 238 were tested at a concentration of 20 μM, 10 μM, 1 μM and 1 μM respectively in the presence of 10 μM of ATP for examples 1 and 12 and at the concentrations of ATP shown in parentheses for examples 166 and 238. The results shown in Table VII correspond to percentage inhibition of the kinase tested in the presence of the compound, relative to a control effected without the compound.

The target of another assay is T3, c-RAF (h) (Homo sapiens, UniProt P04049, Y340D/Y341D).
T3 construct: purchased Upstate
T3 sequence (P04049 306-648 Y340D/Y341D limits assumed): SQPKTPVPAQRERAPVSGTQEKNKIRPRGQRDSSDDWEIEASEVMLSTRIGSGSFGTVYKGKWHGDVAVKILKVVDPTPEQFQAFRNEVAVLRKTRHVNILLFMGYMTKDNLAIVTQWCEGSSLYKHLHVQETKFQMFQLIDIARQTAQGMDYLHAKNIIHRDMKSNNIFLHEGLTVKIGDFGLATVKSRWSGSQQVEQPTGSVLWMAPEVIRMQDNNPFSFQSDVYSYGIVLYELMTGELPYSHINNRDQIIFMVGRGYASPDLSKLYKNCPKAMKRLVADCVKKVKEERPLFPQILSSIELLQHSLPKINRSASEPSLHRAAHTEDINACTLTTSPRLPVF
The assay is described as follows: Upstate kinase panel: c-RAF. The method, then: as §1

In another assay the target is T4, CDK2/cyclinE (h) (Homo sapiens, UniProt P24941).
T4 construct: purchased Upstate
In words: Upstate kinase panel: CDK2/cyclinE. The settings on record: 10 μM ATP. As for the experimental part:
as §1

For the next assay, the target named is T5, cKit (h) (Homo sapiens, UniProt P10721).
T5 construct: purchased Upstate
The assay is described as follows: Upstate kinase panel: cKit. The method, then: as §1

A further assay deals with T6, EGFR (h) (Homo sapiens, UniProt P00533).
T6 construct: purchased Upstate
T6 sequence (P00533 25-1210): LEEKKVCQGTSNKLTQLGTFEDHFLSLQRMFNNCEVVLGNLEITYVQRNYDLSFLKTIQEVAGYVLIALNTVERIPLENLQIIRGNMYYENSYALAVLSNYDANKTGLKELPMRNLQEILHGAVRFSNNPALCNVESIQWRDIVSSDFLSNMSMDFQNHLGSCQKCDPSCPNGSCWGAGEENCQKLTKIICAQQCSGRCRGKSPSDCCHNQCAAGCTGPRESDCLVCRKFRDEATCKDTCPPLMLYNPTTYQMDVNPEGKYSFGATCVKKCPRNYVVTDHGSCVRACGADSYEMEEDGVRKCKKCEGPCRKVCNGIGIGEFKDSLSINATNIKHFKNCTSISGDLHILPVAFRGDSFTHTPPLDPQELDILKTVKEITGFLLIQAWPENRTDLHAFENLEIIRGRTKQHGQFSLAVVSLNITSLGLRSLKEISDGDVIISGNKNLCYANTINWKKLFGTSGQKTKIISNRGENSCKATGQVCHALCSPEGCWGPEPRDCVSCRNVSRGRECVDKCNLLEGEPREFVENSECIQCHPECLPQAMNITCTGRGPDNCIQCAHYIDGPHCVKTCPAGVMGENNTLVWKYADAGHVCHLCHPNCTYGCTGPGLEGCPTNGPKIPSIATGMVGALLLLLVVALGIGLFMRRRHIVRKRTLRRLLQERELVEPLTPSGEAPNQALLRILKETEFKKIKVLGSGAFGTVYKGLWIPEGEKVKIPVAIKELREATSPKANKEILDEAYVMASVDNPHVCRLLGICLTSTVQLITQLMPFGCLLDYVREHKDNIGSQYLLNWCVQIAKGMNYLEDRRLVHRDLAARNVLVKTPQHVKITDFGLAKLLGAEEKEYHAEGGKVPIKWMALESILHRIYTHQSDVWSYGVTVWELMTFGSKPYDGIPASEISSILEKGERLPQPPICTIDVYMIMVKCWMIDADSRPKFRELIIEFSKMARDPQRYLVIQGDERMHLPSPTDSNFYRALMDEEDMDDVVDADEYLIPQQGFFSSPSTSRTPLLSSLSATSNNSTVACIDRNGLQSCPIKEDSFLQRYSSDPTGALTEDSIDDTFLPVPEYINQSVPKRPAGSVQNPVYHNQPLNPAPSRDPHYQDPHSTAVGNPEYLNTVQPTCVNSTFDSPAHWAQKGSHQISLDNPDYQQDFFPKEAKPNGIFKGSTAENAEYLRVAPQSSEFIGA
In words: Upstate kinase panel: EGFR. As for the experimental part:
as §1

Another assay has as its target T7, FGFR2 (h) (Homo sapiens, UniProt P21802).
T7 construct: purchased Upstate
In words: Upstate kinase panel: FGFR2. Particulars: 10 μM ATP. The method, then:
as §1

The next assay concerns the target T8, GSK3B (h) (Homo sapiens, UniProt P49841).
T8 construct: purchased Upstate
In words: Upstate kinase panel: GSK3B. As for the experimental part: as §1

Another assay deals with T9, IGF-1R (h) (Homo sapiens, UniProt P08069).
T9 construct: purchased Upstate
The assay is described as follows: Upstate kinase panel: IGF-1R. Particulars: 10 μM ATP. As for the experimental part:
as §1

A further assay addresses T10, IKKβ (h) (Homo sapiens, UniProt O14920).
T10 construct: purchased Upstate
T10 sequence (O14920 1-756): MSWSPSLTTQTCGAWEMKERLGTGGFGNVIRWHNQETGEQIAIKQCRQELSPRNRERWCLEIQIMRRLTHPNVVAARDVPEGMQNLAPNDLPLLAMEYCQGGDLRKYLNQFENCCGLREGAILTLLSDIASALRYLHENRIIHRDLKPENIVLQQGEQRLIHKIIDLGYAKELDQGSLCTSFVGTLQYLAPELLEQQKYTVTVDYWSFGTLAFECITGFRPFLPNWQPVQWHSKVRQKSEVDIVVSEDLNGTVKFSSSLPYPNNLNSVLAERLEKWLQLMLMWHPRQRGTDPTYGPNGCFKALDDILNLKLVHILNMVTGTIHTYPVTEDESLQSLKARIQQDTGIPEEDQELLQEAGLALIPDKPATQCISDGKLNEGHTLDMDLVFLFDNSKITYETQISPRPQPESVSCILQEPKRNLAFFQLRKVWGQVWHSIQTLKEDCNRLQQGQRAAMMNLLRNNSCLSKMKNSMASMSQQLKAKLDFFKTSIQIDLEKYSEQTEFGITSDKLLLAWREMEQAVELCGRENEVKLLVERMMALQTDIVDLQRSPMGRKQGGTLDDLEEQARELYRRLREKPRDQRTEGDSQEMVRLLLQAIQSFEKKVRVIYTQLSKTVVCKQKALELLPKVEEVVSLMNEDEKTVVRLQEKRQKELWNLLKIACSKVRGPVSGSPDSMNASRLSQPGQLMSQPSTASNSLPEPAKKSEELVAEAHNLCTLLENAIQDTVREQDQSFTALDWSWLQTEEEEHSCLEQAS
In words: Upstate kinase panel: IKKβ. As for the experimental part:
as §1

In another assay the target is T11, MAPK2 (h) (Homo sapiens, UniProt P28482).
T11 construct: purchased Upstate
T11 sequence (P28482 whole entry): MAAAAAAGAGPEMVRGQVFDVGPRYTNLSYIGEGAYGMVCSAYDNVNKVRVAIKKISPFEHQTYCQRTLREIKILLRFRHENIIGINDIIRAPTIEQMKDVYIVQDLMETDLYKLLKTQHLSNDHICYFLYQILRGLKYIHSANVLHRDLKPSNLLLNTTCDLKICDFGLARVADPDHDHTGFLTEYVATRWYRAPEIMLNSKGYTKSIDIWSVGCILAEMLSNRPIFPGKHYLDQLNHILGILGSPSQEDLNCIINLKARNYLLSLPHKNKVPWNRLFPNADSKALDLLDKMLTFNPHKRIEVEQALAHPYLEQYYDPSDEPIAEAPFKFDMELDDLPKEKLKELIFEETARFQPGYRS
In words: Upstate kinase panel: MAPK2. As for the experimental part:
as §1

Another assay deals with T12, ROCK-II (h) (Homo sapiens, UniProt O75116).
T12 construct: purchased Upstate
T12 sequence (O75116 whole entry): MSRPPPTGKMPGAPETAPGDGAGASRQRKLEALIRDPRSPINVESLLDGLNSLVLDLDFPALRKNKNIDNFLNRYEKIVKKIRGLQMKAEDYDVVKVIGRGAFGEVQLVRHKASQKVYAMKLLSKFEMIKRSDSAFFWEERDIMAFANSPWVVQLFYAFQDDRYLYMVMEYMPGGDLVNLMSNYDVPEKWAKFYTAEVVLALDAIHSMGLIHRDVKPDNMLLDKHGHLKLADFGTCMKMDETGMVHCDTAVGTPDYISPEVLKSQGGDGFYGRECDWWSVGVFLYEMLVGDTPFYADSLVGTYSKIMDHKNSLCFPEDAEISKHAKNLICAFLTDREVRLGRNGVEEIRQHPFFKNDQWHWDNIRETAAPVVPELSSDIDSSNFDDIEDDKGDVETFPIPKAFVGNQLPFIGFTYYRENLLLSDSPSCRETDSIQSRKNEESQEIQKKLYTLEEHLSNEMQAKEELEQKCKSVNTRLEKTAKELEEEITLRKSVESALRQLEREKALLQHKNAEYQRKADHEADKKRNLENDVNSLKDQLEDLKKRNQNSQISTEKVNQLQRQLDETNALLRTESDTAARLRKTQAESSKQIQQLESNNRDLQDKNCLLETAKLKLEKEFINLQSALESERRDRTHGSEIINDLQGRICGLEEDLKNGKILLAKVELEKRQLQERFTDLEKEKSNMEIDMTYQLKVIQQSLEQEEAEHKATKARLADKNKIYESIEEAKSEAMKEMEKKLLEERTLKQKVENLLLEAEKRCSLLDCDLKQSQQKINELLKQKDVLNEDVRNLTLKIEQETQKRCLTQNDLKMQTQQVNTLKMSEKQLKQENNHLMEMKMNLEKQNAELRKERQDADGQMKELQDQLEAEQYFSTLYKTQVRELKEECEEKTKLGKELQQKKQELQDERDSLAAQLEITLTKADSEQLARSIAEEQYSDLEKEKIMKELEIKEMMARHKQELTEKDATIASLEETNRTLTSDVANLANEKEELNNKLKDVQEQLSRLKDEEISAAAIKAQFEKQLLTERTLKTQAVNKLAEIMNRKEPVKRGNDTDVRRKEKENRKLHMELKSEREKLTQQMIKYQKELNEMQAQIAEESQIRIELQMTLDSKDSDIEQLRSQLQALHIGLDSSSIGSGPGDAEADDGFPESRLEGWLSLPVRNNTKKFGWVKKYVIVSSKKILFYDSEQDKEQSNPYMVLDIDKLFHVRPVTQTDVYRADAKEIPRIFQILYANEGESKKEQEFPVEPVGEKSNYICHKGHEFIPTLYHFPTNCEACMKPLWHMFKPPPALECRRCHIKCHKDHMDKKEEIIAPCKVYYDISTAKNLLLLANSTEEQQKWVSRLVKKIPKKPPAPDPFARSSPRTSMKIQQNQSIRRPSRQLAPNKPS
The assay is described as follows: Upstate kinase panel: ROCK-II. The method, then:
as §1

The mark [1] stands for this setting: compound 10 μM, 10 μM ATP, read-out: % inhibition at 10 μMol.
Where [2] appears, read: compound 10 μM, read-out: % inhibition at 10 μMol.
[3] abbreviates: compound 20 μM, 10 μM ATP, read-out: % inhibition at 20 μMol.
Setting [4] is: compound 20 μM, read-out: % inhibition at 20 μMol.
[5] abbreviates: compound 1 μM, ATP (15), read-out: % inhibition at 1 μMol.
Where [6] appears, read: compound 1 μM, ATP (10), read-out: % inhibition at 1 μMol.

T8 sequence (P49841 whole entry): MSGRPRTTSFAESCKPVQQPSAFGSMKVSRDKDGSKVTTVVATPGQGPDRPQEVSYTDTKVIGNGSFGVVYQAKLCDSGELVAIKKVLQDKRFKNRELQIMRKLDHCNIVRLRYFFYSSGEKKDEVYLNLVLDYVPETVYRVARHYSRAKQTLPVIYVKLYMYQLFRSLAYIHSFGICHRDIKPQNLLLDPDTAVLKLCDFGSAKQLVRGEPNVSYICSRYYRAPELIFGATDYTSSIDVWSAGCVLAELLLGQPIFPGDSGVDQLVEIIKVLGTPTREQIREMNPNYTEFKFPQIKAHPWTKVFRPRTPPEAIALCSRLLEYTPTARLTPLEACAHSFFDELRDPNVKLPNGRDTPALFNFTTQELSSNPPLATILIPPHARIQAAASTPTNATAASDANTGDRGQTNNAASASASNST

Regarding `CCOC(=O)c1c[nH]c2c(=O)[nH]c3ccc(S(=O)(=O)Nc4ccc(F)cc4)cc3c12` [Compound 12, 8-(4-Fluorophenylsulfamoyl)-4-oxo-4,5-dihydro-3H-pyrrolo[2,3-c]quinoline-1-ethyl carboxylate], the IC50 at RET is < 100 nM. Moreover, the inhibition at 10 µM at Aurora-A (h) (setting [1]) was determined as 94%; on c-RAF (h) (setting [1]), 79%; on CDK2/cyclinE (h) (setting [2]) it was 12%; at cKit (h) (setting [1]), 45%; on EGFR (h) (setting [1]), 13%; on FGFR2 (h) (setting [2]) it was 91%. Also, the inhibition at 10 µM at GSK3B (h) (setting [1]) was 22%; at IGF-1R (h) (setting [2]), 0%; at IKKβ (h) (setting [1]), 0%; at MAPK2 (h) (setting [1]), 3%; at ROCK-II (h) (setting [1]) it was 17%.

Regarding `CCOC(=O)c1c[nH]c2c(=O)[nH]c3ccccc3c12` [Compound 1, 4-Oxo-4,5-dihydro-3H-pyrrolo[2,3-c]quinoline-1-ethyl carboxylate], at RET, the IC50 was in the range of 1000 to 10000 nM. In addition, the inhibition at 20 µM came out at 16% at Aurora-A (h) (setting [3]); 17% at c-RAF (h) (setting [3]); 97% on CDK2/cyclinE (h) (setting [4]); 20% at cKit (h) (setting [3]); 19% at EGFR (h) (setting [3]); 82% on FGFR2 (h) (setting [4]). Moreover, the inhibition at 20 µM at IGF-1R (h) (setting [4]) came out at 42%; on IKKβ (h) (setting [3]), 22%; at MAPK2 (h) (setting [3]), 1%; on ROCK-II (h) (setting [3]), 8%.

As for `CCOC(=O)c1c[nH]c2c(=O)[nH]c3ccc(-c4cccc(S(C)(=O)=O)c4)cc3c12` [Compound 238, 8-(3-Methanesulfonyl-phenyl)-4-oxo-4,5-dihydro-3H-pyrrolo[2,3-c]quinoline-1-ethyl carboxylate], the 50% inhibitory concentration (IC50) at RET fell in the range of 100 to 1000 nM. Moreover, the inhibition at 1 µM was 24% on Aurora-A (h) (setting [5]); 3% on c-RAF (h) (compound 1 μM, ATP (45), read-out: % inhibition at 1 μMol); 4% at cKit (h) (compound 1 μM, ATP (200), read-out: % inhibition at 1 μMol); 3% at EGFR (h) (setting [6]); 0% at GSK3B (h) (setting [5]); 0% at IKKβ (h) (setting [6]). The inhibition at 1 µM at MAPK2 (h) (compound 1 μM, ATP (155), read-out: % inhibition at 1 μMol) came to 0%; at ROCK-II (h) (setting [5]) it was 5%.
